Results: patent publication US12595259B2, “Aminopyridine compound” (ZHUHAI UNITED LABORATORIES CO., LTD., priority 2020, dated 2026)

Test: Experiment of aldehyde-trapping ability in vitro
Settings: for percentage content of the complex product (HPLC, 254 nm): nonanal 1.0 eq, compound 1.0 eq, 20 to 23° C.
Experimental: Objective: xerophthalmia is caused by inflammations inside the eye, and these inflammations would produce some aldehydes in vivo. If these aldehydes are not eliminated in time, the symptoms of inflammations would be accelerated and worsen the xerophthalmia. In this experiment, by simulating the in vivo environment, a relatively preferred compound was selected according to the complexing ability of the drug and the aldehyde in vivo.
Process: sulfobutyl-B-cyclodextrin (310 mg) was dissolved in phosphate buffer (1.25 mL) to prepare a solution.
Nonanal (5.0 mg, 32 μmol, 1.0 eq) and glyceryl trioleate (300 mg) were added into a reaction flask at room temperature. After the above prepared solution was added thereto, linoleic acid (300 mg) was then added thereto, and finally a dimethyl sulfoxide (0.15 mL) solution containing the compound of the present disclosure (32 μmol, 1.0 eq) was added thereto. The reaction solution was reacted at 20 to 23° C.
After stirring and reacting for 10 minutes, 100 minutes, 200 minutes, and 300 minutes, respectively, the reaction solution was allowed to stand for 2 minutes, layered and then sampled for high performance liquid detection.
Sampling method: 25 μL of the upper emulsion layer and 50 μL of the lower aqueous phase were sampled with a pipette, and diluted with 1 mL of methanol.
Nonanal has weak ultraviolet absorption at a wavelength of 254 nm, and has little influence on the content of complexation product as a whole. Therefore, the percentage content of the complexed compound at 254 nm in high performance liquid phase was compared to observe the ability of the compound to trap and complex aldehyde.
The HPLC analysis method is shown in Table 1 below, which is XBRIGE 2.5 μm, 3.0*100 mm 5-95CD_XBEH_12 min_0.8.lcm

## CC(C)(O)c1ncc(-c2nc(C(C)(C)O)c(N)s2)cc1N [Compound 1]
Complex product content against time, 10 to 300 minutes
  Area under the curve AUC: 1874 min. conversion rate
Linear fit of complex product content against time, 10 to 300 minutes
  Slope: 0.0394
Reaction time 10 minutes
  percentage content of the complex product (HPLC, 254 nm): 1.095
Reaction time 100 minutes
  percentage content of the complex product (HPLC, 254 nm): 4.751
Reaction time 200 minutes
  percentage content of the complex product (HPLC, 254 nm): 8.764
Reaction time 300 minutes
  percentage content of the complex product (HPLC, 254 nm): 12.496
